# Paper PMC4448990 (Pharmacology Research & Perspectives, 2015)
# Tests used:
# [1] = target: Kinase, protein, PKCb2 (h) (Homo sapiens, UniProt P05771); assay: in vitro selectivity profile; format: biochemical
# [2] = test system: transient Na+ current (INaT); settings: ref Döser et al. [2013b], [2015]; cited from earlier work
# [3] = test system: Oxygenase, COX-2; assay: in vitro selectivity profile; format: biochemical; settings: eslicarbazepine 400 μmol/L
# [4] = test system: Serotonin, 5HT4; assay: in vitro selectivity profile; format: binding; settings: eslicarbazepine 400 μmol/L
# [5] = target: Protease, caspase, CASP-2 (h) (Homo sapiens, UniProt P42575); assay: in vitro selectivity profile; format: biochemical
# [6] = test system: Glutamate, NMDA, phencyclidine site; assay: in vitro selectivity profile; format: binding; settings: eslicarbazepine 400 μmol/L
# [7] = target: Dopamine, D4.4 (h) (Homo sapiens, UniProt P21917); assay: in vitro selectivity profile; format: binding
# [8] = cited from earlier work
# [9] = test system: Opioid, kappa 1; assay: in vitro selectivity profile; format: binding; settings: eslicarbazepine 400 μmol/L
# [10] = test system: Corticotropin-releasing factor, nonselective; assay: in vitro selectivity profile; format: binding; settings: eslicarbazepine 400 μmol/L
# [11] = test system: Glutamate, AMPA site; assay: in vitro selectivity profile; format: binding; settings: eslicarbazepine 400 μmol/L
# [12] = target: Dopamine, D1 (h) (Homo sapiens, UniProt P21728); assay: in vitro selectivity profile; format: binding
# [13] = target: Protease, caspase, CASP-10 (h) (Homo sapiens, UniProt Q92851); assay: in vitro selectivity profile; format: biochemical
# [14] = test system: GABA, chloride, TBOB site; assay: in vitro selectivity profile; format: binding; settings: eslicarbazepine 400 μmol/L
# [15] = target: Kinase, protein, PKA (h) (Homo sapiens, UniProt P17612); assay: in vitro selectivity profile; format: biochemical
# [16] = target: Adenosine transporter (h) (Homo sapiens, UniProt Q99808); assay: in vitro selectivity profile; format: binding
# [17] = target: human α1β2γ2 GABAA receptors (Homo sapiens, UniProt P14867+P18507+P47870); assay: submaximal GABA currents in Ltk cells; format: cell-based
# [18] = target: Kinase, protein, MAPK1 (ERK2, p42mapk) (h) (Homo sapiens, UniProt P28482); assay: in vitro selectivity profile; format: biochemical
# [19] = target: hKv7.2 potassium channels (Homo sapiens, UniProt O43526); assay: whole-cell patch clamp, hKv7.2 in CHO cells; format: cell-based; settings: depolarizing pulse +20 mV from holding potential −80 mV
# [20] = test system: Oxidase, MAO-B, central; assay: in vitro selectivity profile; format: biochemical; settings: eslicarbazepine 400 μmol/L
# [21] = test system: Dopamine, D3; assay: in vitro selectivity profile; format: binding; settings: eslicarbazepine 400 μmol/L
# [22] = target: Kinase, protein, ROCK2 (h) (Homo sapiens, UniProt O75116); assay: in vitro selectivity profile; format: biochemical
# [23] = target: Kinase, protein, CK1d (CSNK1D) (h) (Homo sapiens, UniProt P48730); assay: in vitro selectivity profile; format: biochemical
# [24] = target: Opioid, Mu (h) (Homo sapiens, UniProt P35372); assay: in vitro selectivity profile; format: binding
# [25] = target: Norepinephrine transporter (h) (Homo sapiens, UniProt P23975); assay: in vitro selectivity profile; format: binding
# [26] = target: Cannabinoid, CB1 (h) (Homo sapiens, UniProt P21554); assay: in vitro selectivity profile; format: binding
# [27] = target: Serotonin transporter (h) (Homo sapiens, UniProt P31645); assay: in vitro selectivity profile; format: binding
# [28] = target: Serotonin, 5HT1A (h) (Homo sapiens, UniProt P08908); assay: in vitro selectivity profile; format: binding
# [29] = target: Serotonin, 5HT7 (h) (Homo sapiens, UniProt P34969); assay: in vitro selectivity profile; format: binding
# [30] = target: Adenosine, A2A (h) (Homo sapiens, UniProt P29274); assay: in vitro selectivity profile; format: binding
# [31] = target: T1, human GlyRα3 glycine receptors (Homo sapiens, UniProt O75311); assay: submaximal glycine currents in CHO cells; format: cell-based
# T1 sequence (O75311 34-464): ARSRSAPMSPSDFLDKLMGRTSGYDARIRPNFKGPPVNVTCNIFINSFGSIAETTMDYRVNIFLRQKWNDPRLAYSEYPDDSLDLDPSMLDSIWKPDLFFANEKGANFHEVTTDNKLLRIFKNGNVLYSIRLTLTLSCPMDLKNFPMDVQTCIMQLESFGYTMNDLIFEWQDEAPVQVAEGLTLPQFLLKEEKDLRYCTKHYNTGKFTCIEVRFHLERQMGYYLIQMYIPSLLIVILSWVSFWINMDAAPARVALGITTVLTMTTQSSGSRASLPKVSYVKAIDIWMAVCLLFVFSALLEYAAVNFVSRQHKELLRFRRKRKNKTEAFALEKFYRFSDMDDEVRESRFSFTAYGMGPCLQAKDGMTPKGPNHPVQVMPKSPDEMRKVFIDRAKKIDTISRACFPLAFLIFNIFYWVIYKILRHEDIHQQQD
# [32] = test system: Thyrotropin-releasing hormone, TRH; assay: in vitro selectivity profile; format: binding; settings: eslicarbazepine 400 μmol/L
# [33] = target: Kinase, protein, MAPK3 (ERK1, P44MAPK) (h) (Homo sapiens, UniProt P27361); assay: in vitro selectivity profile; format: biochemical
# [34] = target: Muscarinic, M4 (h) (Homo sapiens, UniProt P08173); assay: in vitro selectivity profile; format: binding
# [35] = target: Opioid, delta 2 (h) (Homo sapiens, UniProt P41143); assay: in vitro selectivity profile; format: binding
# [36] = test system: Purinergic, P2Y; assay: in vitro selectivity profile; format: binding; settings: eslicarbazepine 400 μmol/L
# human α1β2γ2 GABAA receptors, sequence (P14867 28-456): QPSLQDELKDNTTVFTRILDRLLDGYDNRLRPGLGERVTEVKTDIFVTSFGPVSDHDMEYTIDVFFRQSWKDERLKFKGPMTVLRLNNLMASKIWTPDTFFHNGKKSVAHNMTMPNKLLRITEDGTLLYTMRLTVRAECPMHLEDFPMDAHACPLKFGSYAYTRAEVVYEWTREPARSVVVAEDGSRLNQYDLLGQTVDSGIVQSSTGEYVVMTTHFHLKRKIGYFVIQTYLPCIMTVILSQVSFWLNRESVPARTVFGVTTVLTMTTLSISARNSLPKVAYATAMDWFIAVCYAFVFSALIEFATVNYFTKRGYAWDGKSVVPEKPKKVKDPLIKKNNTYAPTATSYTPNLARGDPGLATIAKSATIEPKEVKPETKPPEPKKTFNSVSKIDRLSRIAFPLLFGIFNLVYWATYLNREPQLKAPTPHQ
# human α1β2γ2 GABAA receptors, sequence (P47870 25-512 limits assumed): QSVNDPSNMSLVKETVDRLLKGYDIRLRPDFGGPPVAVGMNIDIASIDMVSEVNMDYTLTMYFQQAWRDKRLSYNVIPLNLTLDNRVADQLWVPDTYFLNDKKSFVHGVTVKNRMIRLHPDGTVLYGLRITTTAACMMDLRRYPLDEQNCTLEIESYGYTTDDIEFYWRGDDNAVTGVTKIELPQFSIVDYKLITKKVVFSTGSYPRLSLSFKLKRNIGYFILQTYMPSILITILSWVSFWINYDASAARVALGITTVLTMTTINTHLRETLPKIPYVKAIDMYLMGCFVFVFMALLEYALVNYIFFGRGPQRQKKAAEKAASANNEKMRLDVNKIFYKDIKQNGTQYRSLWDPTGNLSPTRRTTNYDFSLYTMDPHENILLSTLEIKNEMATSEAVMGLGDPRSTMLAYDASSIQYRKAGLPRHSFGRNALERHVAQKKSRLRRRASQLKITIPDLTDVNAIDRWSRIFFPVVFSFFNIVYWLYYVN
# human α1β2γ2 GABAA receptors, sequence (P18507 40-475): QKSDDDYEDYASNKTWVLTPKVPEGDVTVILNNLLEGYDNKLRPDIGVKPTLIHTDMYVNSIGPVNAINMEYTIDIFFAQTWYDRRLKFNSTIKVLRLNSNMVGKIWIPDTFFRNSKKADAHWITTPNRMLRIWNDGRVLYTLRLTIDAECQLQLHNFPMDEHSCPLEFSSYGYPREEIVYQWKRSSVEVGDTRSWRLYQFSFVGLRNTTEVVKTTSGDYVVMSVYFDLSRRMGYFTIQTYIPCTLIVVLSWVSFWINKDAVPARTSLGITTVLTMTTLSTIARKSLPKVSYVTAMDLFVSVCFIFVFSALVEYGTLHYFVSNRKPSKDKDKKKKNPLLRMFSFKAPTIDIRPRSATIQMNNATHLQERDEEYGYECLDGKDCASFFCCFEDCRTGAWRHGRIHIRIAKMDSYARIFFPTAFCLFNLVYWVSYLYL
# Kinase, protein, MAPK1 (ERK2, p42mapk) (h), sequence (P28482 whole entry): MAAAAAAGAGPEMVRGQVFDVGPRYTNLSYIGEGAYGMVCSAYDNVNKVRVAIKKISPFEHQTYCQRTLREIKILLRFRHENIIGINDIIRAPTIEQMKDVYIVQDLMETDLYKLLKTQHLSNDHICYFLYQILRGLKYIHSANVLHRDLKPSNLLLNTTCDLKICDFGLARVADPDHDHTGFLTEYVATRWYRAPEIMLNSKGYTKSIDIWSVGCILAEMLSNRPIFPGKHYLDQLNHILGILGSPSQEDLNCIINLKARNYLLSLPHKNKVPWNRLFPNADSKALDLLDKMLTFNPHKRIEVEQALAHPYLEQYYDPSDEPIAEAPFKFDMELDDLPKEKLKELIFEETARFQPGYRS
# Serotonin, 5HT7 (h), sequence (P34969 whole entry): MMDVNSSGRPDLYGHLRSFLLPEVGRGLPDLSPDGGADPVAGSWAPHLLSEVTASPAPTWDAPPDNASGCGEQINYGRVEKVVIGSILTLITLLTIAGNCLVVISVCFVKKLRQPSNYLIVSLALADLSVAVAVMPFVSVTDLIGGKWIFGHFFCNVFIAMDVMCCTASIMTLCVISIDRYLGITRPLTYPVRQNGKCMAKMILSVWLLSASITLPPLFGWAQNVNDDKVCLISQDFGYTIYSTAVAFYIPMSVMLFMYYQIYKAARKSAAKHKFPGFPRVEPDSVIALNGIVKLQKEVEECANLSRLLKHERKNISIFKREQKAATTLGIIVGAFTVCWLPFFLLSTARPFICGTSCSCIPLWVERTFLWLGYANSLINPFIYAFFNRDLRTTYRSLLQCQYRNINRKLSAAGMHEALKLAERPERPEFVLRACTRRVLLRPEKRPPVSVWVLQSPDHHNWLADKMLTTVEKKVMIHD
# Adenosine transporter (h), sequence (Q99808 whole entry): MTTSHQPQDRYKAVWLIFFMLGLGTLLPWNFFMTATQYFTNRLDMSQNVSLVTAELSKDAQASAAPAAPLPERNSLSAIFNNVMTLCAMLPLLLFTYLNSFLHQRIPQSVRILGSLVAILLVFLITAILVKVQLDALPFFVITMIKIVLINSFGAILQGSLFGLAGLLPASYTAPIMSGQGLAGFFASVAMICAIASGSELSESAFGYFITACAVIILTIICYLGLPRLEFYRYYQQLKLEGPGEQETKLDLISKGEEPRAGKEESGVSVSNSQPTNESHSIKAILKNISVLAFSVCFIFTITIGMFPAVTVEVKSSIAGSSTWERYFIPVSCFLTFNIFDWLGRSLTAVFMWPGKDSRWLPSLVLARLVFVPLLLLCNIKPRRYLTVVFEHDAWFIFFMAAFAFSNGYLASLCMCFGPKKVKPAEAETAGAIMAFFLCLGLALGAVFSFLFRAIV
# Kinase, protein, CK1d (CSNK1D) (h), sequence (P48730 whole entry): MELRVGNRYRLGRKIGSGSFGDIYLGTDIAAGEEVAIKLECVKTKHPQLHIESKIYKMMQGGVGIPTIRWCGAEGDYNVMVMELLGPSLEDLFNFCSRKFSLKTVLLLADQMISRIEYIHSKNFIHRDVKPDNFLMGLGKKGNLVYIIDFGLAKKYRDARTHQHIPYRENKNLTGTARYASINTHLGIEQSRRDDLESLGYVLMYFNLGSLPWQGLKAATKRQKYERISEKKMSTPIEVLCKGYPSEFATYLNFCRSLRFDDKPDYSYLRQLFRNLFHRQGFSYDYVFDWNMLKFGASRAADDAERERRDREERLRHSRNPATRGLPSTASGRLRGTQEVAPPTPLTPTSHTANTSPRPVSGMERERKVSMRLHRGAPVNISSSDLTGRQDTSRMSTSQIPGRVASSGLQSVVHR
# Adenosine, A2A (h), sequence (P29274 whole entry): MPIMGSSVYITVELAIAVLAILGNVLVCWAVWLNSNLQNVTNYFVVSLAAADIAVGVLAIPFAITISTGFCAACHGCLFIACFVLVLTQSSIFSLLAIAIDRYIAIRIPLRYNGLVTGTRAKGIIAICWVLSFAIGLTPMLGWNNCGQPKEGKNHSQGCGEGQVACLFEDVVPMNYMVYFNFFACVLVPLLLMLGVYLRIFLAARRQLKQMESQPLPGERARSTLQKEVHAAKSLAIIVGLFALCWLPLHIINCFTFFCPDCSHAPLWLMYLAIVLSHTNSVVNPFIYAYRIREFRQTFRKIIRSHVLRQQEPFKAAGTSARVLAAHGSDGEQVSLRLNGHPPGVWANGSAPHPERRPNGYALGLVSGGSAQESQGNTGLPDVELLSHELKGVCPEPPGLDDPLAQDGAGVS
# Serotonin, 5HT1A (h), sequence (P08908 whole entry): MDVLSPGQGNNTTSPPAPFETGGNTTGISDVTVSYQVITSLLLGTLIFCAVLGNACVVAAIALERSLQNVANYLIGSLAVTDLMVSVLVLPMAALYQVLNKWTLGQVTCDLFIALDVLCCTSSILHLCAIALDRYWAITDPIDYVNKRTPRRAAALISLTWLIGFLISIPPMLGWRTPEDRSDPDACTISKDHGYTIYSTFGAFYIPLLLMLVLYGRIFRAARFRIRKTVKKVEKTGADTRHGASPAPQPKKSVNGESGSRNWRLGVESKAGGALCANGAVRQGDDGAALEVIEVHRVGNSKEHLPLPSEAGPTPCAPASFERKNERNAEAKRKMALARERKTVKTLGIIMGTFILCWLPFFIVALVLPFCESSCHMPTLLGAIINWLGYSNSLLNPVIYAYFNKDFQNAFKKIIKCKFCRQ
# Dopamine, D4.4 (h), sequence (P21917 whole entry): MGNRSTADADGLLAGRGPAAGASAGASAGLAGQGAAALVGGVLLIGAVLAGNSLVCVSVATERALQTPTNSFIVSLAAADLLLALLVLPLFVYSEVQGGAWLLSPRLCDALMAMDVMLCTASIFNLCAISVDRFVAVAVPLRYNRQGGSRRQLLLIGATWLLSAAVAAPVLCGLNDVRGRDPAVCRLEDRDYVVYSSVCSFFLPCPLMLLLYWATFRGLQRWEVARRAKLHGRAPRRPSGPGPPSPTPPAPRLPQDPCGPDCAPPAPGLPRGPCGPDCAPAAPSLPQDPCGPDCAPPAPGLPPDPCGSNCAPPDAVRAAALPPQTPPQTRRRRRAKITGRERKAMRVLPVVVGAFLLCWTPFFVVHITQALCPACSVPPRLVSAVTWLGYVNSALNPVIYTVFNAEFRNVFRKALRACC
# Serotonin transporter (h), sequence (P31645 whole entry): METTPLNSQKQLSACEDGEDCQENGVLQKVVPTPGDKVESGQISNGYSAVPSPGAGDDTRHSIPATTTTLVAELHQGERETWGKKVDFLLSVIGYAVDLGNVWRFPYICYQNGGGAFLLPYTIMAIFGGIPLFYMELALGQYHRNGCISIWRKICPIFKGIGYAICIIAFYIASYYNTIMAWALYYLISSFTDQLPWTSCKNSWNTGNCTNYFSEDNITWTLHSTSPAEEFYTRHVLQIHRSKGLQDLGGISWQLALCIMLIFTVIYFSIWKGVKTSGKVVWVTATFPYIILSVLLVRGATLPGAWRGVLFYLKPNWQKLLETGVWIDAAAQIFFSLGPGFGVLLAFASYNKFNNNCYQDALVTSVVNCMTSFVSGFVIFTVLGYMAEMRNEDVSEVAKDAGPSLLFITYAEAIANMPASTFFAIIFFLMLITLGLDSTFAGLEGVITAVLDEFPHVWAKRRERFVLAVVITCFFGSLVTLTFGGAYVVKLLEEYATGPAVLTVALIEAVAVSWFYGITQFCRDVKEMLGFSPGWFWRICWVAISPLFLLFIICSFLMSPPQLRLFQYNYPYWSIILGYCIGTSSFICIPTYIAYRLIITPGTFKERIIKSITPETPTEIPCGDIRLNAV
smiles,measurement,setting,value
NC(=O)N1c2ccccc2C[C@H](O)c2ccccc21 [eslicarbazepine],inhibition at 400 µM,[1],0%
same,"inhibition of firing of DGCs, control versus pilocarpine-treated rats",[2],equally effective in inhibiting firing of DGCs in control versus pilocarpine-treated rats
same,% inhibition,[3],0.0%
same,% inhibition,[4],7.38%
same,inhibition at 400 µM,[5],0%
same,% inhibition,[6],0.0%
same,inhibition at 400 µM,[7],0%
same,CSF Cmax eslicarbazepine levels,"[8]; 1200 mg QD oral ESL, ref Nunes et al. [2013]",30 µM
same,share of circulating active moieties after oral ESL,"[8]; humans, ref Almeida and Soares-da-Silva [2007]",~95%
same,peak plasma concentrations of eslicarbazepine,"[8]; oral ESL 1200 mg QD, ref Perucca et al. [2011]",90 µmol/L
same,% inhibition,[9],5.39%
same,% inhibition,[10],26.95%
same,% inhibition,[11],0.0%
same,inhibition at 400 µM,[12],6.85%
same,inhibition at 400 µM,[13],0%
same,% inhibition,[14],38.95%
same,inhibition at 400 µM,[15],3.67%
same,inhibition at 400 µM,[16],10.1%
same,"GABA inward current stimulation, α1β2γ2, Mean ± SEM",[17]; 50 μmol/L,103.3 ± 2.0
same,"GABA inward current stimulation, α1β2γ2, Mean ± SEM",[17]; 100 μmol/L,95.9 ± 1.0
same,"GABA inward current stimulation, α1β2γ2, Mean ± SEM",[17]; 250 μmol/L,97.8 ± 1.1
same,"GABA inward current stimulation, α1β2γ2, Mean ± SEM",[17]; 500 μmol/L,99.4 ± 0.8
same,effect on submaximal α1β2γ2 GABA currents,[17]; 50–500 μmol/L,did not significantly change submaximal GABA currents
same,inhibition at 400 µM,[18],0%
same,"IC50, KV7.2 outward currents",[19],no inhibitory effect
same,% inhibition,[20],0.95%
same,% inhibition,[21],0.0%
same,inhibition at 400 µM,[22],8.54%
same,inhibition at 400 µM,[23],5.18%
same,inhibition at 400 µM,[24],0%
same,inhibition at 400 µM,[25],9.33%
same,inhibition at 400 µM,[26],20.4%
same,inhibition at 400 µM,[27],0%
same,inhibition at 400 µM,[28],0.4%
same,inhibition at 400 µM,[29],0%
same,inhibition at 400 µM,[30],6.81%
same,IC50,[31],1190 µM
same,% inhibition,[32],16.14%
same,inhibition at 400 µM,[33],2.05%
same,inhibition at 400 µM,[34],6.08%
same,inhibition at 400 µM,[35],7.91%
same,% inhibition,[36],0.0%
